Results from publication PMC12322260, “Anticancer activity of triterpene glycosides from the sea star Solaster pacificus” (Scientific Reports, 2025).
Several values for one entry are separate records, joined by “and”; a condition that tells them apart may be missing. Equal values may be shown once.

Tests used:
PC3-DR cells [1] = assay: Drug combination MTT assay, SynergyFinder ZIP analysis; type: cell-based, human; details: 48 h
Description: (§1) Fig. 5 Effects of CuC1 in combination with taxanes and platinum agents. PC3-DR and 22Rv1 cells were co-treated with cisplatin (Cis), carboplatin (Carbo), docetaxel (Doce), or cabazitaxel (Caba) in combination with CuC1 at the indicated concentrations for 48 h. Cellular viability was evaluated using the MTT assay (number of biological replicates n = 3.) and is represented in the Supplementary Table S2. The cytotoxic effects were further analyzed, and 3D heat maps were constructed using SynergyFinder 3.0 software. The drug effects in combination (synergistic, additive, or antagonistic) were analyzed and visualized using the ZIP algorithm and are indicated by δ-score. δ > 10: Synergistic interactions (dark red area); […]: additive effect; δ < − 10: Antagonistic interactions (dark green area). A ZIP synergy score represents a mean δ overall the concentration range used.
(§2) The effect of combinational treatment with established chemotherapies was evaluated as previously reported^54. In brief, cells were exposed to individual drugs of their combinations for 48 h, and the viability was measured by MTT assay and was then analyzed using SynergyFinder 3.0 software (https://synergyfinder.fimm.fi) and the ZIP score algorithm. Statistical analysis was conducted automatically by the software using its inbuilt algorythms based on the input data type and size.

22Rv1 cells [2] = assay: as above; type: cell-based, human; details: 22Rv1, 48 h
Description: as §1, §2

[3] = target: P-glycoprotein (P-gp) in PC3-DR cells (Homo sapiens, UniProt P08183); assay: P-gp activity, calcein-AM assay; details: 30 min
Excerpt: A major contributor to docetaxel resistance is P-glycoprotein (also known as P-gp, MDR1), known to be overexpressed in PC3-DR cells. P-glycoprotein is a molecular efflux pump that actively expels various xenobiotic agents, including docetaxel, from cancer cells. Increased P-gp expression correlates with an increased IC50 for docetaxel, signifying enhanced drug resistance. […] In this assay, the non-fluorescent calcein-AM passively diffuses into cells, where it is hydrolyzed by cellular esterases into fluorescent calcein. Both calcein and its precursor are P-gp substrates and are actively transported out of P-gp-highly expressing cells (e.g. PC3-DR cells), which results in reduced intracellular fluorescence. P-gp inhibitors, such as tariquidar, block P-gp function, leading to calcein accumulation and an increase in fluorescence, which therefore can be used as a reliable indicator of reduced P-gp activity. A similar fluorescence increase is observed in the presence of docetaxel due to its competitive binding to the P-gp transporter alongside calcein[38].
Number of biological replicates n = 3. […] Number of biological replicates n = 3.
The evaluation of the activity of P-glycoprotein (P-gp) was performed using calcein-AM assay as described previously. […] The plates were incubated for 15 min, and the green calcein fluorescence was recorded using an Infinite F200PRO plate reader (TECAN). […]

PC3-DR cells [4] = details: TQD 50 nM
Description: Viability was evaluated using MTT assay, and IC50s were calculated using GraphPad Prism software. Number of biological replicates n = 3. […] Cells (6 × 10^3 cells/well in 100 μL/well of media) were plated in 96-well plates. The plates were incubated overnight, and the medium was replaced with fresh medium containing drugs at the indicated concentrations. The plates were further incubated for 48 h, unless otherwise stated, the solution of MTT reagent in PBS was added to each well, and cells were incubated for another 2–4 h to form formazan crystals. Then the media was removed and the plates were dried overnight. 50 μL of DMSO was added to each well to dissolve the formazan crystals. The absorbance of each well was measured using an Infinite F200PRO reader (TECAN, Männedorf, Switzerland). The cell viability was estimated as an inhibition concentration (IC50), which was calculated using GraphPad Prism software v.9.1.1 (GraphPad Software, San Diego, CA, USA). IC₅₀ values were determined by fitting the data to a nonlinear regression model (log[inhibitor] versus normalized response—variable slope).

22Rv1 cells [5] = assay: Western blotting of apoptotic markers; type: cell-based, human
Description: Fig. 3 Functional kinome profiling of STKs (serine/threonine kinases) in 22Rv1 cells and validation of results. (a) Expression of apoptotic markers. The cells were treated with CuC1 for the indicated time, and the expression of proteins was analyzed by Western blotting. (b, c) Functional kinome profiling. A heatmap displaying log2-transformed phosphorylation levels of 99 analyzed STK substrate peptides (b) and upstream kinase analysis, which predicted kinases affected by CuC1 (c). Values of the normalized kinase statistics represented by bars, where log2 < 0 indicates decreased kinase activity and log2 > 0 denotes increased activity. […] 22Rv1 cells were treated with CuC1 for 2 h and the MAPK expression was analyzed by Western blotting. β-actin was used as a loading control. The band intensity of the protein of interest was quantified using Image Lab software and normalized to the band intensity β-actin (a), or to the band intensity of non-phospho MAPK (d), and is indicated by red numbers. […]
Western blotting was performed as previously described. […] Proteins were transferred on a PVDF membrane and detected using specified primary and secondary antibodies. The protein signals were visualized and detected using the ECL chemiluminescence system (Thermo Scientific, Rockford, IL, USA). […] The signal (band) intensity was quantified using Image Lab v. […]

Chain of P-glycoprotein (P-gp) in PC3-DR cells (P08183 whole entry): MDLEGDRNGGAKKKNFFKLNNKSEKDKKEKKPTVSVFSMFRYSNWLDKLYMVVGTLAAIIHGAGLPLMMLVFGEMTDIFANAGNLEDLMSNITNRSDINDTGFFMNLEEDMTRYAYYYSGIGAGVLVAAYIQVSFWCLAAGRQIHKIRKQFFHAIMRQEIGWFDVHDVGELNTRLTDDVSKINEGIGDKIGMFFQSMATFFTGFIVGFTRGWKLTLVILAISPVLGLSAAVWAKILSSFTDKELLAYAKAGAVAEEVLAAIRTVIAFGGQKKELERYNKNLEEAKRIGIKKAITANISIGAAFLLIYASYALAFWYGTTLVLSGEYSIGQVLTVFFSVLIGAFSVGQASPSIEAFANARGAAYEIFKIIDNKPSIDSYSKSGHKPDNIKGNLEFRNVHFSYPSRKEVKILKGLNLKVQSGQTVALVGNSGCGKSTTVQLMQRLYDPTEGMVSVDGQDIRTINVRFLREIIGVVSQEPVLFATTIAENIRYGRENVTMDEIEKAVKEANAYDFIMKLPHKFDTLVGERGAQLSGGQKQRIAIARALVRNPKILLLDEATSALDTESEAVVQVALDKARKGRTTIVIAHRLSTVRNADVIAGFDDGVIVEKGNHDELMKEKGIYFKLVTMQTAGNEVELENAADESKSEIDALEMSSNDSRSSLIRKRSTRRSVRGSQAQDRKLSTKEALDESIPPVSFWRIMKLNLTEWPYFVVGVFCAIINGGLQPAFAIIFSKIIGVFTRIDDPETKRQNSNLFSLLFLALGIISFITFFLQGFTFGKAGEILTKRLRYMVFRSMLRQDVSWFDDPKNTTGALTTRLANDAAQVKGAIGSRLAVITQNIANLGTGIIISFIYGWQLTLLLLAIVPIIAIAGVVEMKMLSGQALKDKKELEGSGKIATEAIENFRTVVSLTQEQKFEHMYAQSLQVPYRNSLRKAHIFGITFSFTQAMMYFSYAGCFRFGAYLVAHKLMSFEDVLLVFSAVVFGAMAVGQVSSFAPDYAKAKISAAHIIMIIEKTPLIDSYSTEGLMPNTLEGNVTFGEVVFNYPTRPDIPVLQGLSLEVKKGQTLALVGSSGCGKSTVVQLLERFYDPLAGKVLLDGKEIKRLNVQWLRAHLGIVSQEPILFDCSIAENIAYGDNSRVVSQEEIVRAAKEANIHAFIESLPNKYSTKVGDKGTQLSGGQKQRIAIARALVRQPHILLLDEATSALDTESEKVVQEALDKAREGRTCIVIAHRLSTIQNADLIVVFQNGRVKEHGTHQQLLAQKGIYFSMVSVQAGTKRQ

CO[C@@H]1[C@@H](O)[C@H](O[C@@H]2[C@@H](O)[C@H](O[C@H]3[C@H](O)[C@@H](O[C@@H]4OC[C@@H](O)[C@H](O)[C@H]4O)[C@H](O[C@H]4[C@H](O[C@H]5CC[C@]6(C)[C@@H]7CCC89C(=O)O[C@@](C)(/C=C\C=C(C)C)[C@H]8[C@@H](OC(C)=O)C[C@@]9(C)C7=CC[C@H]6C5(C)C)OC[C@@H](O)[C@@H]4O)O[C@@H]3C)O[C@H](CO)[C@H]2O)OC[C@H]1O (some centres unmarked) [CuC1, cucumarioside C1]
Response (% of effect) (PC3-DR cells [1]; CuC1 1 μM alone): 33.69% and 25.1% and 26.58% and 38.2% and 34.475% and 30.33% and 41.47% and 24.44% | Response (% of effect) (PC3-DR cells [1]; CuC1 2 μM alone): 61.45% and 55.31% and 54.31% and 72.9% and 63.58% and 68.91% and 61.135% and 65.14% | Response (% of effect) (PC3-DR cells [1]; CuC1 4 μM alone): 90.21% and 89.15% and 83.68% and 93.87% and 94.47% and 92.06% and 92.89% and 96.86% | Response (% of effect) (22Rv1 cells [2]; CuC1 0.25 μM alone): 31.1% and 43.16% and 29.95% and 34.58% and 29.34% and 26.82% and 33.12% and 30.57% | Response (% of effect) (22Rv1 cells [2]; CuC1 0.5 μM alone): 81.71% and 82.23% and 73.42% and 77.37% and 76.17% and 72.77% and 72.16% and 76.9194% | Response (% of effect) (22Rv1 cells [2]; CuC1 1 μM alone): 95.8597% and 95.08% and 89.09% and 94.3% and 94.37% and 95.8% and 97.07% and 93.71% | P-gp activity (calcein-AM efflux) ([3]; glycosides at non-cytotoxic concentrations, controls TQD 50 nM, Doce 100 nM): did not result in any significant changes in calcein-AM efflux | intracellular calcein fluorescence ([3]; high cytotoxic concentrations): increase of intracellular fluorescence | effect of co-treatment with tariquidar on cytotoxicity (PC3-DR cells [4]): did not alter cytotoxicity | signs of cell death (apoptotic markers) (22Rv1 cells [5]; 22Rv1, 0.5 μM, 2 h): did not induce any signs of cell death | apoptotic markers (22Rv1 cells [5]; 22Rv1, 24 h of treatment): apoptotic markers such as cleaved PARP and caspase-3 were detected
